# PMC5960717 (Frontiers in Microbiology, 2018)
# T1: ScAlt1 (Saccharomyces cerevisiae, UniProt P52893)
# T1 construct: gene ALT1; N-terminal His-tag (pET-28a), E. coli Rosetta 2 (DE3); theoretical monomer 61 kDa, SEC 147 kDa, dimer
# T1 sequence (P52893 81-592): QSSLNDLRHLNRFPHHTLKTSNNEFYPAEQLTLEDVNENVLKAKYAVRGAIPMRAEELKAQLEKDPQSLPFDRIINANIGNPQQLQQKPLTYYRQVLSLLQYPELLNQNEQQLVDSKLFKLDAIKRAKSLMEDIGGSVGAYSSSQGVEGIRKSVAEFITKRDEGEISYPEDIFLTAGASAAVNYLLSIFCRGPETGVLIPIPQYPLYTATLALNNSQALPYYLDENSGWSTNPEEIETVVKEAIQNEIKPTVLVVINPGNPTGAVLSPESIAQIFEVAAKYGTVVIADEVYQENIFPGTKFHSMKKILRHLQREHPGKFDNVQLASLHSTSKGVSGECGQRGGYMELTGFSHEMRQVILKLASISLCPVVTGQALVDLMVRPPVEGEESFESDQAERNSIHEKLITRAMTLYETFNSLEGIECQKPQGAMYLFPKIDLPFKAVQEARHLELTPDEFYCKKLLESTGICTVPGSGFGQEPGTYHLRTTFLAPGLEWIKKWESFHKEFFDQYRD
# T2: ScAlt2 (Saccharomyces cerevisiae, UniProt P52892)
# T2 construct: gene ALT2; N-terminal His-tag (pET-28a), E. coli Rosetta 2 (DE3), 4°C expression; forward primer ATGACAATGACACACCAACAGG (MTMTHQQ); theoretical monomer 58 kDa, SEC 127 kDa, dimer
# T2 sequence (P52892 1-507): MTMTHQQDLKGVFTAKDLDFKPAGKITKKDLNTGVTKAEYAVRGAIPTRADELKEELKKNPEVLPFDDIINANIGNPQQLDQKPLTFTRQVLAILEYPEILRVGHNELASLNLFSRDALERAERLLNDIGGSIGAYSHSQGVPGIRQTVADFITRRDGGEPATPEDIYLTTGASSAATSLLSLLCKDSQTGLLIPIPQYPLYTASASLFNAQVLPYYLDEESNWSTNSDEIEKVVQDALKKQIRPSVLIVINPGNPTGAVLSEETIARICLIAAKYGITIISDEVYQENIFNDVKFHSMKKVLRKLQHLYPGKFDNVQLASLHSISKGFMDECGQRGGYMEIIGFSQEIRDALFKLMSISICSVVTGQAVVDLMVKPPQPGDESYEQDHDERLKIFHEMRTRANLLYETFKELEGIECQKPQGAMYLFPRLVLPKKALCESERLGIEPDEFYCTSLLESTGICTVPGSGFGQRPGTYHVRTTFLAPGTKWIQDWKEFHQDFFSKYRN
# B1: ScAlt1 (Saccharomyces cerevisiae alanine transaminase), recombinant, without the mitochondrial localization sequence (enzyme, S. cerevisiae, UniProt P52893 65-592, looked up)
# chain: SSSWIVAQNHRRSLSGQSSLNDLRHLNRFPHHTLKTSNNEFYPAEQLTLEDVNENVLKAKYAVRGAIPMRAEELKAQLEKDPQSLPFDRIINANIGNPQQLQQKPLTYYRQVLSLLQYPELLNQNEQQLVDSKLFKLDAIKRAKSLMEDIGGSVGAYSSSQGVEGIRKSVAEFITKRDEGEISYPEDIFLTAGASAAVNYLLSIFCRGPETGVLIPIPQYPLYTATLALNNSQALPYYLDENSGWSTNPEEIETVVKEAIQNEIKPTVLVVINPGNPTGAVLSPESIAQIFEVAAKYGTVVIADEVYQENIFPGTKFHSMKKILRHLQREHPGKFDNVQLASLHSTSKGVSGECGQRGGYMELTGFSHEMRQVILKLASISLCPVVTGQALVDLMVRPPVEGEESFESDQAERNSIHEKLITRAMTLYETFNSLEGIECQKPQGAMYLFPKIDLPFKAVQEARHLELTPDEFYCKKLLESTGICTVPGSGFGQEPGTYHLRTTFLAPGLEWIKKWESFHKEFFDQYRD
# notes: ScAlt1, alanine transaminase of S. cerevisiae, amplified from genomic DNA of strain CLA1; no residue limits are stated; the forward primer (CATATGCAATCTTCGCTAAACGACCTGC) places the start at Met-QSSLNDL; the reverse primer appears to lie after the stop codon; theoretical monomer mass printed as 61 kDa; The start of the construct can be worked out from the printed forward primer …
# B2: ScAlt2 (Saccharomyces cerevisiae presumed alanine transaminase paralogue), recombinant (enzyme, S. cerevisiae, UniProt P52892 1-507, looked up)
# chain: T2 sequence (P52892 1-507)
# notes: ScAlt2 of S. cerevisiae, amplified from genomic DNA of strain CLA1; the forward primer starts at ATGACAATGACACACCAACAGG (MTMTHQQ) and the reverse primer holds the stop codon (TCA ATT ACG ATA ...); theoretical monomer mass printed as 58 kDa; source: E. coli Rosetta 2 (DE3), pET-28a(+), purified (Ni-NTA)
# B3: ScAlt1 (Saccharomyces cerevisiae S288C) (protein)
# chain: T1 sequence (P52893 81-592)
# notes: N-terminal His-tag (pET-28a), E. coli Rosetta 2 (DE3); theoretical monomer 61 kDa, SEC 147 kDa, dimer
# Experiments:
# ScAlt1 [1] = target: T1, ScAlt1; experiment: UV-visible shift, external Schiff base ([…] nm); format: binding; conditions: 50 mM KH2PO4, 4 mM MgCl2, PLP, covalent
# ScAlt2 = target: T2, ScAlt2; experiment: UV-visible absorption of Schiff base ([…] nm), NaBH4 reduction; format: binding; conditions: covalent (reversible internal Schiff base, ketoenamine); 50 mM K2HPO4, 4 mM MgCl2, pH 7.5, 100 μM PLP
# ScAlt1 [2] = target: T1, ScAlt1; experiment: UV-visible absorption of Schiff base ([…]-335 and […] nm), NaBH4 reduction; format: binding; conditions: covalent (reversible internal Schiff base, enolimine and ketoenamine); 50 mM K2HPO4, 4 mM MgCl2, pH 7.5, 100 μM PLP
# ScAlt1 [3] = target: T1, ScAlt1; experiment: intrinsic fluorescence titration ([…] nm); format: binding
# [4] = target: the molecule itself; experiment: SEC; Superose 6 10/300 GL on an Akta FPLC; mobile phase 50 mM K2HPO4, 4 mM Mg2Cl, pH 7.5; calibrated with Bio-Rad molecular weight standards
# purified protein [5] = substrate: O=C(O)CCC(=O)C(=O)O; experiment: purified protein; format: biochemical, Saccharomyces cerevisiae; conditions: varied alanine 2-15 mM and α-ketoglutarate 0.05-10 mM, 40 μM PLP, pH 7.5, 25°C, ping-pong, Ka here = Michaelis constant, co-substrate alanine
# purified protein [6] = substrate: C[C@H](N)C(=O)O; experiment: purified protein; conditions: varied alanine 2-15 mM and α-ketoglutarate 0.05-10 mM, 40 μM PLP, pH 7.5, 25°C, ping-pong, Ka here = Michaelis constant
# [7] = 1 μl of 81 mM stock added to 10 μl protein
molecule,measurement,setting,value
N[C@@H](CS)C(=O)O [cysteine],"UV-visible shift, external Schiff base (325 nm)",ScAlt1 [1]; 1 μl of 238 mM stock added to 10 μl protein,"ScAlt1 could form external Schiff base with glutamate, serine, cysteine, histidine, and aspartic acid"
N[C@@H](CCC(=O)O)C(=O)O [glutamate],"UV-visible shift, external Schiff base (325 nm)",ScAlt1 [1]; [7],"ScAlt1 could form external Schiff base with glutamate, serine, cysteine, histidine, and aspartic acid"
Cc1ncc(COP(=O)(O)O)c(C=O)c1O [PLP],"UV-visible absorption of Schiff base (420 nm), NaBH4 reduction",ScAlt2,"both, ScAlt1 and ScAlt2 have PLP attached through a Schiff base"
same,"UV-visible absorption of Schiff base (330-335 and 420 nm), NaBH4 reduction",ScAlt1 [2],"both, ScAlt1 and ScAlt2 have PLP attached through a Schiff base"
N[C@@H](CO)C(=O)O [serine],"UV-visible shift, external Schiff base (325 nm)",ScAlt1 [1]; 1 μl of 23 mM stock added to 10 μl protein,"ScAlt1 could form external Schiff base with glutamate, serine, cysteine, histidine, and aspartic acid"
N[C@@H](CC(=O)O)C(=O)O [aspartic acid],"UV-visible shift, external Schiff base (325 nm)",ScAlt1 [1]; [7],"ScAlt1 could form external Schiff base with glutamate, serine, cysteine, histidine, and aspartic acid"
N[C@@H](Cc1cnc[nH]1)C(=O)O [histidine],"UV-visible shift, external Schiff base (325 nm)",ScAlt1 [1]; 1 μl of 20 mM stock added to 10 μl protein,"ScAlt1 could form external Schiff base with glutamate, serine, cysteine, histidine, and aspartic acid"
C[C@H](N)C(=O)O [alanine],Kd,ScAlt1 [3],1000 ± 100 µM
B1,stoichiometry N,[4],2
B2,stoichiometry N,[4],2
B3,Km,purified protein [5],0.67 ( ± 0.06) mM
same,kcat,purified protein [5],698 s⁻¹
same,Km,purified protein [6],10.39 ( ± 1.12) mM
same,kcat,purified protein [6],698 s⁻¹
